Assay results reported in US8080659B2, “CXCR4 antagonists including diazine and triazine structures for the treatment of medical disorders” (Emory University, priority 2006, dated 2011).

Key:
[1] = system: CXCR4; experiment: CXCR4 protein levels after treatment of cells; assay type: cell-based, human
[2] = system: human umbilical vein endothelial cells (HUVECs); experiment: endothelial capillary tube formation assay; assay type: cell-based; settings: 100 nM; SDF-1 100 ng/ml; 18 hours
Procedure: The anti-angiogenic effect of test compounds was measured by analyzing endothelial cell growth and tube formation. The angiogenic effect of SDF-1 (100 ng/ml) on capillary formation by human umbilical vein endothelial cells (HUVECs) was examined in vitro using Matrigel-coated 24-well plates precoated with Matrigel and incubated for 18 hours. The angiogenic effect of SDF-1 was inhibited by either 100 nM TN14003 (peptide-based CXCR4 antagonist) or WZZL811S treatment (FIG. 14a, graph FIG. 14b).

[3] = biological target: T1, CXCR4 (Homo sapiens, UniProt P61073); experiment: SDF-1-stimulated Akt phosphorylation in MDA-MB-231 cells (western blot); assay type: cell-based; set-up: endogenous in cells; host or cells: MDA-MB-231; settings: for concentration blocking Akt activation: 100 ng/ml SDF-1, 30 minutes; for block of SDF-1-stimulated phosphorylation of Akt: MDA-MB-231 cells, 100 ng/ml SDF-1, 30 min, dose-dependent
Procedure: FIG. 2 is an image of a western blot showing phosphorylation of Akt. Incubating MDA-MB-231 cells with 100 ng/ml of SDF-1 for 30 min stimulated phosphorylation of Akt. This activation was blocked with TN14003 or AMD3100 in a dose-dependent manner.
CXCR4/SDF-1 interaction activates PI3K/Akt and Ras/Raf/MEK/Erk pathways in a Gαi protein (PTX-sensitive)-dependent manner. Experiments were conducted to determine the effect of blocking CXCR4/SDF-1 interaction by either TN14003 or AMD3100 at different concentrations (0, 0.01, 0.1, 1, 10, 100, 1000 nM) on phosphorylations of Akt and Erk1/2 signaling. Incubating cells with 100 ng/ml of SDF-1 for 30 minutes activated Akt. […] However, the increase in Erk1/2 phosphorylation by SDF-1 was not significant as the increase in Akt phosphorylation.
(§1) WZZL811S was tested in a matrigel invasion assay to determine whether it can inhibit CXCR4/SDF-1-mediated invasion.

[4] = system: HIV; settings: MT-4 cells; read-out: concentration required for 50% protection of HIV-induced cytopathogenicity; cited from earlier work
[5] = system: 686LN cells; experiment: Head & Neck cancer metastasis model, 686LN cells i.v., FDG-PET; assay type: in vivo, mice; settings: 20 mg/mouse/twice weekly, thirty days
Procedure: The metastatic 686LN cells were injected intravenously through the tail vein to generate experimental animal models for Head & Neck cancer metastasis, modulated via CXCR4. […] These 3-D projection images show lung metastases well (bone mets and liver mets were apparent in axial section images of mice in control groups, data not shown).

[6] = system: MDA-MB-231 cells; experiment: matrigel invasion assay, CXCR4/SDF-1-mediated invasion; assay type: cell-based, human; settings: 2 nM
Procedure: Lowering CXCR4 mRNA levels by siRNAs inhibited CXCR4/SDF-1-mediated invasion as measured by a matrigel invasion assay. The CXCR4 ligand, SDF-1 (400 ng/ml) was added to the lower chamber to attract CXCR4-positive breast cancer cells to migrate through the matrigel. The invasion of MDA-MB-231 cells transfected with siRNA1 decreased to 39±4% of the control cells, 51±8% with siRNA2, and only 16±6% with both siRNA1+2 (FIG. 3A).
as §1

[7] = biological target: T1, CXCR4; experiment: SDF-1-stimulated Erk1/2 phosphorylation; assay type: cell-based; set-up: endogenous in cells; host or cells: MDA-MB-231; settings: data not shown
Procedure: CXCR4/SDF-1 interaction activates PI3K/Akt and Ras/Raf/MEK/Erk pathways in a Gαi protein (PTX-sensitive)-dependent manner. Experiments were conducted to determine the effect of blocking CXCR4/SDF-1 interaction by either TN14003 or AMD3100 at different concentrations (0, 0.01, 0.1, 1, 10, 100, 1000 nM) on phosphorylations of Akt and Erk1/2 signaling.

[8] = system: MT-4 cells; settings: cited from earlier work
[9] = biological target: T1, CXCR4; experiment: competition assay using biotin-labeled TN14003 on tumor cells; assay type: binding; set-up: endogenous in cells; probably MDA-MB-231
Text: In a separate embodiment, a process for screening potential drug candidates is provided. The process includes providing a labeled peptide-based CXCR4 antagonist that has a detectable signal when bound to a CXCR4 receptor; contacting a CXCR4 receptor with at least one test molecule at a known concentration to form a test sample; contacting the test sample with the peptide-based antagonist; separately, contacting the peptide-based antagonist to a sample not including any test molecule to form a control sample; and comparing the signal from the test sample to the signal from the control sample. In a specific sub-embodiment, the peptide-based antagonist is derived from TN14003 (described in PCT Publication No. WO 04/087068 to Emory University). In a further subembodiment, the antagonist is labeled with a biotin molecule and the signal is elicited when the biotin-labeled antagonist is contacted with a streptavadin-conjugated signal molecule.
The signal elicited by binding of the CXCR4 antagonist and the receptor can be a fluorescent signal. […]
The peptide-based antagonist is typically a molecule with high affinity for the receptor. […] In this embodiment, the test compound is incubated with the receptor at varying concentrations and the signal elicited after binding of the labeled antagonist is measured and compared to control, as well as to each other. […]

[10] = clinical trials; cited from earlier work
[11] = system: hypoxia-responsive element (HRE) of VEGF promoter; experiment: HRE-luciferase reporter of VEGF promoter activity in HRE-Luc MB-231 cells; assay type: cell-based, human
Text: To determine whether lowering CXCR4 levels might affect VEGF transcription compared to HIF-1α the hypoxia-reporting luciferase/LacZ plasmid from Dr. Van Meir's laboratory was used as a reporter system to detect hypoxia-responsive element (HRE) of VEGF promoter activity (Post, D. E. and Van Meir, E. G. (2001) Gene Ther 8: 1801-1807). The sequence of HIF-1α siRNA was 5′-UUCAAGUUGGAAUUGGUAGdTdT-3′ (SEQ. ID No. 3). Pooled cell clones were created with MDA-MB-231 cells stably transfected with this plasmid (called HRE-Luc MB-231). Unexpectedly, HRE activity in normoxia was moderately high in MDA-MB-231 cells that have high CXCR4 levels in normoxia (FIG. 6, left), which was not observed in other cell lines with low CXCR4 and HIF-1 levels (LN229, U87, 9L, and MDA-MB-435). This moderately high HRE activity in MDA-MB-231 cells was suppressed by CXCR4 siRNA or HIF-1α siRNA. […] As expected, the HRE activity increased 2.5-fold by hypoxia treatment (1% oxygen and 5% CO2 in nitrogen). This elevated HRE activity was again suppressed by siRNA for CXCR4 or HIF-1α (FIG. 6, right).

T1 sequence (P61073 whole entry): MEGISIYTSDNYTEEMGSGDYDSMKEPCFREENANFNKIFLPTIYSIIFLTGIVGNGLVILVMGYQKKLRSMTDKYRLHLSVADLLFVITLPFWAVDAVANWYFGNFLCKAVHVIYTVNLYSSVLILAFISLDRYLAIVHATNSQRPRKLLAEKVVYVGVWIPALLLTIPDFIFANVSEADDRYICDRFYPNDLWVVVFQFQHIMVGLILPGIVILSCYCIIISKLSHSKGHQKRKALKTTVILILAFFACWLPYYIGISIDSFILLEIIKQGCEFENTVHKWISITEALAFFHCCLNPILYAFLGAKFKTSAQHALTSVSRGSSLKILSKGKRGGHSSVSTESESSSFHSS

## TN14003
[1]
  effect on CXCR4 protein levels: did not affect
[2]
  angiogenic effect of SDF-1 on capillary tube formation: inhibited
[3]
  concentration blocking Akt activation: sub-nano molar
  block of SDF-1-stimulated phosphorylation of Akt: blocked
[4]
  EC50: 0.6 nM
[5]
  metastasis to organs: failed to metastasize to any organs
[6]
  block of CXCR4/SDF-1 mediated invasion: blocked
[7]
  concentration attenuating Erk1/2 phosphorylation: sub-nano molar
[8]
  concentration leading to 50% toxicity: 410 µM

## C1=CC(CN2CCCNCCNCCCNCC2)CC=C1CN1CCCNCCNCCCNCC1 (centres unmarked) [AMD3100]
[1]
  effect on CXCR4 protein levels: did not affect
[3]
  concentration blocking Akt activation: a few nano molar
  block of SDF-1-stimulated phosphorylation of Akt: blocked
[9]
  concentration needed to compete against biotin-labeled TN14003: 10 µM
[10]
  side effect in clinical study: cardiac-related side effect
[7]
  concentration attenuating Erk1/2 phosphorylation: 100 nM

## HIF-1α siRNA: HIF-1α siRNA, 5′-UUCAAGUUGGAAUUGGUAGdTdT-3′ (SEQ. ID No. 3) (guide UUCAAGUUGGAAUUGGUAGNN; further chemistry not given here)
[11]; hypoxia (1% oxygen)
  HRE activity: suppressed
[11]; normoxia
  HRE activity: suppressed
